PubChem BioAssay (NCI)
Values joined by “and” are separate entries in the source; they are usually repeats but may differ in a detail not shown here. Equal values may be shown once.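 Growth conditions: 96-well plates. Treatment: test compound, 48 hours, 5 concentrations. Analysis: linear interpolation between bracketing concentrations; unreached endpoints set to highest concentration. GI50 marks 50% less growth. TGI denotes the concentration required for complete inhibition of growth.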

Legend:
Assay in all cases: inhibition of tumour cell growth, NCI panel, 48 h
[1] = test system: RPMI-8226 leukemia
[2] = test system: HCT-116 colon
[3] = test system: LOX IMVI melanoma
[4] = test system: TK-10 renal
[5] = test system: HCT-15 colon
[6] = test system: U251 CNS
[7] = test system: CAKI-1 renal
[8] = test system: EKVX NSCLC
[9] = test system: MDA-MB-435
[10] = test system: DU-145 prostate

| Structure (SMILES) | TGI [1] | TGI [2] | TGI [3] | TGI [4] [µM] | TGI [5] [µM] | TGI [6] [µM] | TGI [7] [µM] | TGI [8] | GI50 [1] [µM] | GI50 [2] [µM] | GI50 [3] [µM] | GI50 [9] [µM] | TGI [9] [µM] | GI50 [4] [µM] | GI50 [5] [µM] | GI50 [6] | GI50 [10] [µM] | TGI [10] [µM] | GI50 [7] | GI50 [8] [µM] |
| --- | --- | --- | --- | --- | --- | --- | --- | --- | --- | --- | --- | --- | --- | --- | --- | --- | --- | --- | --- | --- |
| CN1C2(c3ccccc3)C(C(=O)c3ccccc3)=C(C(=O)c3ccccc3)C1(c1ccccc1)c1c(-c3ccccc3)sc(-c3ccccc3)c12 | > 100 µM | > 100 µM | > 100 µM | > 100 | > 100 | > 100 | > 100 | > 100 µM |  |  |  |  |  |  |  |  |  |  |  |  |
| COc1cc(C(=O)NN=C2c3ccccc3-c3ccccc32)cc(OC)c1OC | > 100 µM | > 100 µM | 49.4 µM | 32.6 | > 100 | 20.3 | 7.92 |  | 3.5 | 2.71 | 2.78 | 0.3 | 1.46 | 7.86 | 2.63 | 3.3 µM | 5.34 | 32.8 | 2.14 µM |  |
| CSC1=Nc2ccccc2N=C(c2ccccc2)C1 |  | 45.6 µM | 32.2 µM | > 100 | > 100 | > 100 | > 100 | > 100 µM |  |  |  |  |  |  |  |  |  |  |  |  |
| Cc1cc(Cl)cc2c1NC(=O)C2(O)C(C(=O)c1ccccc1)c1ccccc1 (stereo unspecified) | 64.5 µM and 42.4 µM | 79.3 µM | > 100 µM and 46.1 µM | > 100 | > 100 | > 100 | > 100 | > 100 µM |  |  |  |  |  |  |  | > 100 µM and 31.1 µM |  |  | 35.7 µM and > 100 µM |  |
| COC1C(=O)CCC2(CO2)C1(O)C1(C)OC1CC=C(C)C (stereo unspecified) |  | > 100 µM |  | > 100 | > 100 | > 100 | > 100 | > 100 µM |  |  |  |  | > 100 |  |  |  |  | > 100 |  |  |
| COc1cc(CC(=O)O)c([N+](=O)[O-])cc1OC | > 100 µM | > 100 µM | > 100 µM | > 100 | > 100 | > 100 | > 100 | > 100 µM |  |  |  |  |  |  |  |  |  |  |  |  |
| Cn1c(=O)c(Oc2ccc(F)cc2F)cc2cnc(NCC(C)(C)O)nc21 | > 25 µM | > 25 µM | > 25 µM | > 25 | > 25 | > 25 | > 25 |  | > 25 | > 25 | > 25 | > 25 | > 25 | > 25 | > 25 | > 25 µM | > 25 | > 25 | > 25 µM |  |
| CC(=O)O[C@@H]1CC[C@@]2(C)C(=O)C34C[C@@]5(C)C([C@@H](C)CCCC(C)C)CCC5(C)[C@](O)(O3)C(=O)[C@H]4C2C1(C)C (stereo partly specified) | 38.9 µM | 27 µM | 32.1 µM | 30.5 | 26.5 | 27.4 | 29.8 | 38.3 µM |  |  |  |  |  |  |  |  |  |  |  |  |
| [CH3][Hg]/[N]=C(/N)NC#N | > 100 µM | 27.9 µM | 14.9 µM | 14.8 | 12.1 | 56 | 25.7 |  | 2.62 | 14.4 | 3.29 |  |  | 3.35 | 3.02 | 23.6 µM |  |  | 12.9 µM |  |
| N#CCCN(c1ccc(C=O)cc1)S(=O)(=O)c1ccccc1 | > 100 µM | > 100 µM | > 100 µM |  | > 100 | > 100 | > 100 | > 100 µM |  |  |  |  |  |  |  |  |  |  |  |  |
| CCCCCCCCCC[C@H](O)[C@H]1CC[C@@H]([C@@H](O)CC[C@H](O)[C@@H]2CCC(CCCCCCC[C@@H](O)CC3=C[C@H](C)OC3=O)O2)O1 (stereo partly specified) | 4.03 µM | 2.65 µM and 20.7 µM | 2.18 µM and 10 µM | 20.9 | 30.8 |  | 23.8 | 6.86 µM and 22.4 µM |  | 0.507 | 0.0764 | 5.07 |  | 4.26 | 7.02 | 8.25 µM |  |  | 5.26 µM | 5.17 |
| COc1ccc([C@@H]2OC(=O)C3C2C(=O)O[C@H]3c2ccc(OC)cc2)cc1 (stereo partly specified) | > 100 µM | > 100 µM |  |  | > 100 | > 100 | > 100 | > 100 µM |  |  |  |  |  |  |  |  |  |  |  |  |
| Nc1c(C(=O)Nc2cccc(C(F)(F)F)c2)sc2nc3c(cc12)CCCCCC3 | 17.5 µM | 4.34 µM | 11.2 µM | 5.82 | 15.3 | 10.5 | 10.2 |  | 2.96 | 1.69 | 3.04 | 2.1 | 13.9 | 2.18 | 2.63 | 2.58 µM | 2.65 | 10.2 | 2.49 µM |  |
| COc1cc(C2CC(c3cccc(Nc4ccnc5cc(Cl)ccc45)c3)=NN2c2ccccc2)cc(OC)c1OC (stereo unspecified) | > 100 µM | > 100 µM | > 100 µM | > 100 | > 100 |  | > 100 |  | 5.33 | 6.51 | 2.3 | 1.47 | 14.2 | 9.57 | 2.91 |  | > 100 | > 100 | 2.52 µM |  |
| C[C@]12CCc3nn(-c4ccccc4)nc3C1CC[C@@H]1C2CC[C@]2(C)C(=O)CCC12 (stereo partly specified) | > 100 µM | > 100 µM | > 100 µM | > 100 | > 100 | > 100 | > 100 | > 100 µM |  |  |  |  |  |  |  |  |  |  |  |  |
| CCOC(=O)C(=O)C(C#N)c1ccc(Cl)cc1 (stereo unspecified) | > 100 µM | > 100 µM | > 100 µM | > 100 | > 100 | > 100 | > 100 | > 100 µM |  |  |  |  |  |  |  |  |  |  |  |  |
| Nc1n[nH]c2ccc([C@@H]3Nc4ccc5cn[nH]c5c4[C@H]4C5CCC(C5)[C@@H]34)cc12 (stereo partly specified) | 11.1 µM | > 100 µM | > 81.2 µM | > 100 | > 100 | > 100 | > 48.8 | > 100 µM | 0.346 | 0.442 | 0.567 |  |  | 15.1 | 0.414 | 0.436 µM | 0.417 | > 100 | 0.347 µM | 0.554 |
| O=C(CC(=O)c1cccc([N+](=O)[O-])c1)C(=O)Nc1ccccc1 | > 100 µM | > 100 µM | > 100 µM | > 100 | > 100 | > 100 | > 100 | > 100 µM |  |  |  |  |  |  |  |  |  |  |  |  |
| CC(=O)Nc1ccc(C2=N/C(=C\c3ccc(Cl)cc3)C(=O)O2)cc1 | > 100 µM | > 100 µM | 35.6 µM | > 100 | 37.1 | > 100 | > 100 | > 100 µM |  |  |  |  |  |  |  |  |  |  |  |  |
